Source: US11446391B2, “Amphiphilic dye-coated inorganic nanoparticle clusters” (THE TRUSTEES OF THE UNIVERSITY OF PENNSYLVANIA, priority 2017, dated 2022)

Columns and labels:
GBM = GBM patients, PDT; cited from earlier work
[1] = Ce6 at 667 nm, PpIX at 631 nm; in M-1cm-1 (unit assumed); cited from earlier work
[2] = Absorbance spectrum in water (solubility); assay type: physicochemical
Experimental: FIGS. 22A-22D. (FIG. 22A) Illustration of Ce6-coated SPION nanoclusters (Ce6-SCs). Iron oxide nanoparticles are stabilized in aqueous media by the self-assembly of amphiphilic PS Chlorin e6 on the surface using a microemulsion. (FIG. 22B) Dynamic light scattering (DLS) of Ce6-SCs in water. […] (FIG. 22C) Particle size and T2 relaxation time was monitored for 6 days in water at 25° C. (FIG. 22D) Magnetic resonance (MR) relaxometry measurements of Ce6-SCs. Inset: T2-weighted image of Ce6-SCs at various concentrations in a microplate. (FIG. 22E) Absorbance spectra of Ce6-SCs (black) and free Ce6 (brown) in water. The inset images are vials containing solutions of Ce6-SCs and free Ce6 in water.
Relaxometry measurements indicated an average r2 value of 301±4 mM^−1 s^−1 and MR images of a phantom confirmed strong T2 contrast relative to water (FIG. 22D).

[3] = Vials of free Ce6 or Ce6 nanoclusters in water; assay type: physicochemical; settings: equal concentrations of Ce6
Experimental: FIG. 43 is a photograph of vials containing solution with free Ce6 or Ce6 nanoclusters in water (at equal concentrations of Ce6).
The size distribution of Ce6 nanoclusters was measured by dynamic light scattering (DLS) in water at 25° C. (FIG. 39). The amphiphilic Ce6 molecules solubilized the PCL, creating stable nanoclusters with an average hydrodynamic diameter of 58±4 nm and an average polydispersity index (PDI) of <0.2. Fluorescence detection takes place when Ce6 is excited at around 404 nm, which then emits a characteristic reference fluorescence peak at approximately 650 nm (FIG. 40).

Molecule	adverse events (GBM)	overall survival (GBM) [months]	peak extinction coefficient [1]	solubility in water judged from absorbance spectrum (peak at ~665 nm) [2]	behaviour in water [3]
C=Cc1c(C)c2cc3nc(c(CC(=O)N[C@@H](CC(=O)O)C(=O)O)c4[nH]c(cc5nc(cc1[nH]2)C(C)=C5CC)c(C)c4C(=O)O)[C@@H](CCC(=O)O)[C@@H]3C [talaporfin, mono-L-aspartyl chlorin e6]	only mild adverse events	24.8	–	–	–
Chlorin e6 [Ce6]	–	–	55,000	poor solubility	aggregate and precipitate in water
